These results are taken from article PMC6222558, “Synthesis and Evolution of Berberine Derivatives as a New Class of Antiviral Agents against Enterovirus 71 through the MEK/ERK Pathway and Autophagy” (Molecules : A Journal of Synthetic Chemistry and Natural …, 2018).

The subject of one data set is Vero cells. In words: Cytotoxicity assay (CCK) in Vero cells. In kind it is cell-based, African green monkey. A digest of the protocol:
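Vero cells seeded at 3 × 10^4 cells/well were exposed overnight-plated to a range of compound concentrations in duplicate for 48 h. Viability was measured by CCK at 450 nm. TC50 is the concentration giving 50% growth inhibition versus controls, calculated by the Reed and Muench method.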

The subject of data set [1] is EV71 BrCr strain (VR-1775, genotype A). In words: CPE inhibition assay for anti-EV71, BrCr strain. In kind it is cell-based, enterovirus 71 (EV71). As to conditions: Enterovirus A, EV71; Vero cells; CPE; calculated on the organic part; n = 3; read-out: BrCr Strain IC50. A digest of the protocol: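 Vero cells infected with 100 × TCID50 EV71 for 1 h at 37 °C in serum-free medium, unbound virus removed, then compounds added for 72 h. IC50 from inhibition of virus-induced CPE; TC50 as concentration giving 50% CPE at 72 h, with selectivity index; crystal violet staining for imaging.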

A further data set concerns EV71 VP1 protein. In words: EV71 VP1 protein by western blot in infected Vero cells. The format is cell-based, enterovirus 71 (EV71). Particulars: Vero cells infected with H strain; better than BBR at 40 μM. As for the experimental part:
To further confirm the anti-EV71 activity, the VP1 down-regulatory activity of 2d was examined in Vero cells infected with H strain of EV71, in comparison with that of BBR. […] Accordingly, VP1 capsid protein expression was also analyzed to examine its effect on EV71 biological synthesis.
(§1) Cells were lysed in the M-PER mammalian protein extraction reagent (Thermo, Rockford, IL, USA) containing halt protease inhibitor single-use cocktail (Thermo). The protein concentration was determined by BCA Protein Assay Kit (Thermo). Equal amount of samples (15 μg proteins) were denatured and applied to sodium dodecyl sulfate-polyacrylamide gel electrophoresis (SDS-PAGE), and then electrophoresis products were transferred to a polyvinylidenefluoride (PVDF) film and blocked by 5% (w/v) milk or BSA at room temperature. An hour later, PVDF membranes were incubated at room temperature with specific primary antibody. After a standard washing, membranes were incubated with horse radish peroxidase (HRP)-labeled secondary antibody. The signals were detected using ECL detection kit (GE Healthcare Life Sciences, Pittsburgh, PA, USA). The primary antibodies used in the experiment included β-actin, p-p44/p42 MAPK, p44/p42 MAPK, p-MEK, MEK, p-JNK, JNK, p-AKT, AKT, PI3KIII, LC3B, Beclin-1 (Cell Signaling Technology, Danvers, MA, USA), and EV71-VP1 (Abnova, Taibei, China). […]

The subject of data set [2] is MEK/ERK signaling pathway. In words: Western blot of MEK/ERK phosphorylation in EV71-infected Vero cells. As to conditions: EV71 H, MOI = 0.1; 24 h treatment. In kind it is cell-based, African green monkey.
Text: The activation of the MEK/ERK signaling pathway has been certified to play an essential role in EV71 life cycle and pathogenesis in various cell types. […] To learn whether or not 2d would still act through MEK/ERK pathway as its parent BBR does, the inhibition experiment of EV71 via this signaling pathway was done with 2d using BBR as the reference. […] We can conclude that compound 2d inhibited the replication of EV71 through down-regulating MEK/ERK signaling pathway.
as §1, with “USA).” for “USA). The primary antibodies used in the experiment included β-actin, p-p44/p42 MAPK, p44/p42 MAPK, p-MEK, MEK, p-JNK, JNK, p-AKT, AKT, PI3KIII, LC3B, Beclin-1 (Cell Signaling Technology, Danvers, MA, USA), and EV71-VP1 (Abnova, Taibei, China).”

The test system of data set [3] is EV71-induced autophagy (AKT, JNK, PI3KIII, LC3II, Beclin-1). In words: Western blot of autophagy proteins in EV71-infected Vero cells. The format is cell-based, African green monkey. Particulars: EV71 H, MOI = 0.1; 24 h treatment. The text has this:
EV71 infection triggers autophagy, which provides a support for EV71 replication. Both JNK and PI3KIII proteins as upstream activators, play important roles in regulating autophagy, and inhibition of corresponding signaling pathway could down-regulate autophagy. Otherwise, AKT, as an inhibitor of autophagy factor, could inhibit autophagy with its activation. To further understand whether 2d still affected autophagy after structure modification, the inhibition of activation AKT and phosphorylation of JNK and PI3KIII proteins were also carried out using BBR as a reference.
Cells were lysed in the M-PER mammalian protein extraction reagent (Thermo, Rockford, IL, USA) containing halt protease inhibitor single-use cocktail (Thermo). The protein concentration was determined by BCA Protein Assay Kit (Thermo). Equal amount of samples (15 μg proteins) were denatured and applied to sodium dodecyl sulfate-polyacrylamide gel electrophoresis (SDS-PAGE), and then electrophoresis products were transferred to a polyvinylidenefluoride (PVDF) film and blocked by 5% (w/v) milk or BSA at room temperature. An hour later, PVDF membranes were incubated at room temperature with specific primary antibody. After a standard washing, membranes were incubated with horse radish peroxidase (HRP)-labeled secondary antibody. The signals were detected using ECL detection kit (GE Healthcare Life Sciences, Pittsburgh, PA, USA). The primary antibodies used in the experiment included β-actin, p-p44/p42 MAPK, p44/p42 MAPK, p-MEK, MEK, p-JNK, JNK, p-AKT, AKT, PI3KIII, LC3B, Beclin-1 (Cell Signaling Technology, Danvers, MA, USA), and EV71-VP1 (Abnova, Taibei, China). HRP-labeled secondary antibodies included goat anti-rabbit and anti-mouse HRP-labeled antibodies (Cell Signaling Technology).
Figure 4 Compound 2d inhibits EV71-induced autophagy. Vero cells were mock-infected or infected with EV71 (H, MOI = 0.1) for 1 h. The cells were then treated with compound 2d and BBR for 24 h. The cells were harvested and proteins were examined by western blot.

On to `COc1ccc2cc3[n+](cc2c1OCC(=O)OCc1ccccc1)CCc1cc2c(cc1-3)OCO2` [2d, 2,3-Methylenedioxy-9-benzyloxyformylmethylenoxy-10-methoxyprotoberberine chloride], for which the “cytotoxicity, in words” value with Vero cells was “lower cytotoxicity”. Moreover, in the data set with Vero cells (African green monkey, 48 h), the “TC50 (median toxic concentration)” value worked out at 82.8 µM. The IC50 in data set [1] is 8.52 µM. Moreover, the VP1 protein expression entry with EV71 VP1 protein was “obviously down-regulate the expression of VP1 protein in a dose-dependent manner”. In addition, in data set [2], the “phosphorylation of MEK and ERK induced by EV71 infection” value is “significantly inhibit the phosphorylation of both MEK and ERK”. Further, in data set [3], the AKT activation result is “activate AKT”; the “LC3II (marker for autophagy)” value is recorded as “decreased”; the “expression of Beclin-1” value is listed as “could not affect the expression of Beclin-1”; the “phosphorylation of JNK and PI3KIII proteins” value is “inhibit the phosphorylation of JNK and PI3KIII proteins”.
